Data as given in PMC11410929, “Biochemical and crystallographic studies of L,D-transpeptidase 2 from Mycobacterium tuberculosis with its natural monomer substrate” (Communications Biology, 2024).

The substances below were run on LdtMt2^C354S.
Assay type: biochemical, Mycobacterium tuberculosis

Substance | Product formation with LdtMt2^C354S
GlcNAc-MurNAc-L-Ala-D-iGluNH2-m-DAPNH2-D-Ala [Compound 1] | no product formation was observed
GlcNAc-Muramitol-L-Ala-D-iGluNH2-m-DAPNH2-D-Ala [Compound 2] | no product formation was observed
lactoyl-L-Ala-D-iGluNH2-m-DAPNH2-D-Ala [Compound 3] | no product formation was observed
